The text below walks through data of patent publication US20220194938A1, “NOVEL COMPOUNDS AND PHARMACEUTICAL COMPOSITIONS THEREOF FOR THE TREATMENT OF INFLAMMATORY DISORDERS” (GALAPAGOS NV, priority 2019, published 2022).

For one data set, the target named is T1, human IRAK-4 (Homo sapiens, UniProt Q9NWZ3).
T1 construct: purchased Carna Biosciences 09 145
T1 sequence (Q9NWZ3 1-460): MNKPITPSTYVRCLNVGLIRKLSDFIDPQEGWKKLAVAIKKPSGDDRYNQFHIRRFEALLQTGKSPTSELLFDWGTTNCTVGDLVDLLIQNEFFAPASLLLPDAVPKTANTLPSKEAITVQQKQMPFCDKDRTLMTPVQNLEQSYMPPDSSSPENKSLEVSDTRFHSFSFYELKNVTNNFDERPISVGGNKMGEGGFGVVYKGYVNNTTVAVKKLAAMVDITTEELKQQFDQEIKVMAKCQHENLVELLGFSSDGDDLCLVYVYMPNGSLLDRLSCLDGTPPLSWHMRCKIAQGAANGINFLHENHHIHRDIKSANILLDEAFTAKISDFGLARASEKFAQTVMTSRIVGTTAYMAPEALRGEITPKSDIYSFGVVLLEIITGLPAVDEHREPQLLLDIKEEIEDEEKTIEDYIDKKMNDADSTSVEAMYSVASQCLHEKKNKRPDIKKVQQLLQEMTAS
In words: Phosphorylation IC50 determination for human IRAK-4 (ADP-Glo kinase assay). Particulars: human IRAK-4, RIP140 substrate, Km ATP; read-out: IRAK4 ADPglo biochemical assay IC50. Here is the method:
3.1. Phosphorylation IC50 Determination for Human IRAK-4
The phosphorylation of the substrate RIP140 (SEQ ID1) by IRAK4 at Km ATP was detected with the ADP-Glo Kinase Assay (Promega, Cat #V9103), a luminescent kinase assay which measures the ADP formed from a kinase reaction. (Zegzouti et al. 2009) In a second step the kinase reaction was terminated and all the remaining ATP was depleted. In a final step the ADP was converted into ATP and this newly synthesized ATP was measured by using a luciferase/luciferin reaction with a luminescent reader. The luminescent signal positively correlated with kinase activity, in particular kinase inhibition giving a decrease of the luminescent signal.
For the semi-automated assay, the positive control (100% inhibition) was prepared by diluting 10 mM staurosporine stock mixture (20 μL) in water (3.8 mL) and DMSO (180 μL), thus resulting in a […] staurosporine solution at 1% DMSO (final concentration after further dilution in the kinase reaction).
For the automated assay, no pre-dilution of the 10 mM staurosporine stock was made. 10 mM staurosporine was spotted directly in the assay plate using acoustic dispensing and complemented with DMSO to result in a similar final concentration as mentioned above.
For the semi-automated assay, the negative control (0% inhibition) was prepared by mixing water (3.8 mL) and DMSO (200 μL) resulting in a final concentration of 1% DMSO after further dilution in the kinase reaction. For the automated assay no pre-dilution of DMSO was done. 100% DMSO was spotted directly on the assay plate.
The assay buffer solution was prepared at a concentration corresponding to 5 fold the final (most diluted) assay concentration by mixing a solution of 125 mM TRIS pH 7.5+0.05% Triton X-100+2.5 mM EGTA (5.27 mL) with 1M mgCl2 (72 μL), 1M DTT (57.6 μL), and 200 mM MnCl2 (360 μL).
For example, for the semi-automated method, the enzyme-substrate mixture was prepared by mixing water (3999 μL), assay buffer solution (1380 μL), 1 mM RIP140 (138 μL—SEQ ID1), and 200 ng/mL IRAK 4 (3.45 μL Carna Biosciences, 09 145).
For semi-automated method, the ATP mixture was prepared at a concentration corresponding to 2.5 fold the final (most diluted) assay concentration of the semi-automated method and 1.5 fold the final (most diluted) assay concentration of the automated method. For example, for the semi-automated method, the ATP mixture was prepared by mixing water (4126 μL), assay buffer solution (1380 μL), and 10 mM ATP (13.80 μL).
The assay was performed either in a semi-automated or fully automated manner. The assay volume and the incubation time of the ADP detection were different accordingly the method used.
3.1.3.1. Semi-Automated Assay
The compounds were prepared as a serial dilution of 10 point dose responses with 1/5 dilution steps in 100% DMSO starting from 2 mM highest concentration, diluted 1/20 in water. 1 μL was transferred dry to the assay plates.
On each assay plate 32 wells of each control (positive & negative) were added, followed by 2 μL enzyme-substrate mixture.
The reaction was started by adding 2 μL diluted ATP (final concentration Km ATP) on the assay plates. Plates were centrifuged for a few seconds at 1000 rpm followed by an incubation at r.t. for 120 min.
The reactions were stopped and the unconsumed ATP was depleted by adding 5 μL ADP-glo Reagent (Promega, Cat #V9103) to the reaction. The plates were quickly centrifuged at 1000 rpm and incubated at r.t. for 40 min corresponding to full ATP depletion.
The ADP was converted back to ATP and luciferase and luciferin were introduced to detect ATP by adding 10 μL kinase detection reagent (Promega, Cat #V9103) to the reaction. The plates were centrifuged for a few seconds at 1000 rpm and incubated at r.t. for a further 30 min.
Luminescent read out was performed on an Envision luminescent reader (Perkin Elmer). […]
Background: ADP-Glo first removes unused ATP, then detects ADP through luciferase.

Data set [1] relates to pooled cryopreserved hepatocytes. In words: Metabolic stability in hepatocytes (human). The format is in vitro ADME. The conditions noted are these: 1 μM test compound. Here is the method: (§1) 4.6. Metabolic Stability in Hepatocytes
(§2) The aim of this assay is to determine the metabolic stability of the compound in hepatocytes (cryopreserved) of different species. Low hepatocyte stability may result in the formation of unwanted metabolites, high clearance, and therefore is not desirable.
(§3) The decrease in parent was assessed by measuring the percentage remaining by LC-MS/MS analysis.
(§4) A 10 mM stock solution of test compound in DMSO was first diluted in DMSO to 3 mM, and then in modified Krebs-Henseleit buffer (Sigma, K3753) to 5 μM. This compound dilution was added to a suspension of pooled cryopreserved hepatocytes (BioreclamationIVT) at 37° C. under gentle shaking.
(§5) Final reaction conditions were: 1 μM of test compound, 0.03% DMSO, 0.5 million viable hepatocytes/mL, and 75 μL incubation volume.
(§6) Testosterone (1 μM) and 7-hydroxycoumarin (1 μM) were used, respectively as phase I and phase II metabolic reaction controls.
(§7) After 0, 10, 20, 45, 90, 120 and 180 min of incubation, the reaction was terminated with 225 μL of MeCN:MeOH (2:1) containing 100 ng/mL of diclofenac as analytical internal standard. Samples were mixed, centrifuged and the supernatant analyzed by LC-MS/MS.
(§8) The instrument responses (ratios of test compound and internal standard peak areas) were referenced to the zero time point samples (considered as 100%) in order to determine the percentage of compound remaining.
(§9) Plots of percentage compound remaining are used to determine the intrinsic clearance in the hepatocyte incubations using the following equations:
(§10) Scaled Clint[L/h/kg]=Clint[μL/min/10^6 cells]*#(10^6) cells/g liver*60*(1/10^6) Scaled Clint unbound [L/h/kg]=Clint [L/h/kg]/Fu,inc where: fu,inc equals hepatocyte binding, derived from microsomal binding (fu,mic) by following equation: […]

For data set [2] the test system is unchanged. In words: Metabolic stability in hepatocytes (mouse). The class given is in vitro ADME. Particulars: 1 μM test compound. How it is done: as §1, §2, §3, §4, §5, §6, §7, §8, §9, §10

A value given as a limit tells only on which side of the number the result lay.

One may read the IC50 as the concentration that gives 50% inhibition. As for `CC(C)(O)CCc1cn2cc(NC(=O)c3cccc(C(F)(F)F)n3)c(Br)cc2n1` [Compound 36, N-[7-bromo-2-(3-hydroxy-3-methyl-butyl)imidazo[1,2-a]pyridin-6-yl]-6-(trifluoromethyl)pyridine-2-carboxamide], the IC50 at human IRAK-4 lay in the range of 0.0001 to 0.005 µM.
As for `CC(C)(O)CCc1cn2cc(NC(=O)c3cccc(C(F)(F)F)n3)c(C(=O)NC3(C)CC3)cc2n1` [Compound 46, 2-(3-hydroxy-3-methylbutyl)-N-(1-methylcyclopropyl)-6-(6-(trifluoromethyl)picolinamido)imidazo[1,2-a]pyridine-7-carboxamide], the IC50 on human IRAK-4 lay within 0.005 to 0.01 µM.
Still for that read-out and setting: the figure for `CC(C)(O)CCc1cn2cc(NC(=O)c3cccc(C(F)(F)F)n3)c(C(=O)NC3COC3)cc2n1` [Compound 44, 2-(3-hydroxy-3-methylbutyl)-N-(oxetan-3-yl)-6-(6-(trifluoromethyl)picolinamido)imidazo[1,2-a]pyridine-7-carboxamide] is 0.005 to 0.01 µM.
In the case of `COc1cc2nc(CCC(C)(C)O)cn2cc1NC(=O)c1cccc(Cl)n1` [Compound 34, 6-chloro-N-[2-(3-hydroxy-3-methylbutyl)-7-methoxyimidazo[1,2-a]pyridin-6-yl]pyridine-2-carboxamide], the “Human (Perc. remaining at 90 min)” value in data set [1] is on record as 49.8%. In addition, in data set [2], the “Mouse (Perc. remaining at 90 min)” value came to 6.59%. Further, the IC50 at human IRAK-4 is 0.005 to 0.01 µM.
The matching figures for `CCOc1cc2nc(CCC(C)(C)O)cn2cc1NC(=O)c1cccn(C)c1=O` [Compound 29, N-[7-ethoxy-2-(3-hydroxy-3-methyl-butyl)imidazo[1,2-a]pyridin-6-yl]-1-methyl-2-oxo-pyridine-3-carboxamide]: 98.85%, 95.2% and 0.01 to 0.05 µM.
In the case of `COc1cc2nc(CCC(C)(C)O)cn2cc1NC(=O)c1cccc(CC#N)n1` [Compound 14, 6-(cyanomethyl)-N-[2-(3-hydroxy-3-methyl-butyl)-7-methoxy-imidazo[1,2-a]pyridin-6-yl]pyridine-2-carboxamide], the “Human (Perc. remaining at 90 min)” value in data set [1] is 89.95%. Further, the “Mouse (Perc. remaining at 90 min)” value in data set [2] was determined as 23.5%. The IC50 at human IRAK-4 lay within 0.005 to 0.01 µM.
For `COc1cc2nc(CCC(C)(C)O)cn2cc1NC(=O)c1ccc(F)c(Cl)n1` [Compound 32, 6-chloro-5-fluoro-N-[2-(3-hydroxy-3-methylbutyl)-7-methoxyimidazo[1,2-a]pyridin-6-yl]pyridine-2-carboxamide], the 50% inhibitory concentration (IC50) on human IRAK-4 was 0.01 to 0.05 µM.
As to `CC(C)(O)CCc1cn2cc(NC(=O)c3cccc(C(F)(F)F)n3)c(C(=O)NCCO)cc2n1` [Compound 40, 2-(3-hydroxy-3-methylbutyl)-N-(2-hydroxyethyl)-6-(6-(trifluoromethyl)picolinamido)imidazo[1,2-a]pyridine-7-carboxamide], in data set [1], the “Human (Perc. remaining at 90 min)” value is 94.65%. In addition, the “Mouse (Perc. remaining at 90 min)” value in data set [2] was found to be 94.55%. Moreover, at human IRAK-4, the IC50 fell in the range of 0.0001 to 0.005 µM.
Turning to `CNC(=O)c1cc2nc(CCS(C)(=O)=O)cn2cc1NC(=O)c1cccc(C(F)(F)F)n1` [Compound 30, N-methyl-2-(2-methylsulfonylethyl)-6-[[6-(trifluoromethyl)pyridine-2-carbonyl]amino]imidazo[1,2-a]pyridine-7-carboxamide], at human IRAK-4, the IC50 lay within 0.01 to 0.05 µM.
Take `COc1cc2nc(CCS(C)(=O)=O)cn2cc1NC(=O)c1cccn(C(F)F)c1=O` [Compound 26, 1-(difluoromethyl)-N-[7-methoxy-2-(2-methylsulfonylethyl)imidazo[1,2-a]pyridin-6-yl]-2-oxo-pyridine-3-carboxamide]: the “Human (Perc. remaining at 90 min)” value in data set [1] was found to be 106%. Besides, the half-inhibitory concentration (IC50) at human IRAK-4 fell in the range of 0.005 to 0.01 µM.
Consider `CC(C)(O)CCc1cn2cc(NC(=O)c3cccc(C(F)(F)F)n3)c(C(=O)NCC3CC3)cc2n1` [Compound 45, N-(cyclopropylmethyl)-2-(3-hydroxy-3-methylbutyl)-6-(6-(trifluoromethyl)picolinamido)imidazo[1,2-a]pyridine-7-carboxamide], for which the concentration for half-maximal inhibition (IC50) at human IRAK-4 lay in the range of 0.005 to 0.01 µM.
With `COc1cc2nc(CCC(C)(C)O)cn2cc1NC(=O)c1cccnc1O` [Compound 9, 2-hydroxy-N-[2-(3-hydroxy-3-methyl-butyl)-7-methoxy-imidazo[1,2-a]pyridin-6-yl]pyridine-3-carboxamide], at human IRAK-4, the IC50 lay in the range of 0.005 to 0.01 µM.
For `CN1CC(NC(=O)c2cc3nc(CCC(C)(C)O)cn3cc2NC(=O)c2cccc(C(F)(F)F)n2)C1` [Compound 43, 2-(3-hydroxy-3-methylbutyl)-N-(1-methylazetidin-3-yl)-6-(6-(trifluoromethyl)picolinamido)imidazo[1,2-a]pyridine-7-carboxamide], on human IRAK-4, the 50% inhibitory concentration (IC50) lay within 0.005 to 0.01 µM.
With `COc1cc2nc(CCC(C)(C)O)cn2cc1NC(=O)c1nc(C)ccc1Cl` [Compound 11, 3-chloro-N-[2-(3-hydroxy-3-methyl-butyl)-7-methoxy-imidazo[1,2-a]pyridin-6-yl]-6-methyl-pyridine-2-carboxamide], the IC50 at human IRAK-4 was above 0.05 µM.
On to `CC(C)(O)CCc1cn2cc(NC(=O)c3cccc(C(F)(F)F)n3)c(C(=O)NC3CCOC3)cc2n1` (stereo not shown) [Compound 47, 2-(3-hydroxy-3-methylbutyl)-N-(tetrahydrofuran-3-yl)-6-(6-(trifluoromethyl)picolinamido)imidazo[1,2-a]pyridine-7-carboxamide], for which the IC50 at human IRAK-4 is 0.005 to 0.01 µM.
In the case of `COc1cc2nc(CCC(C)(C)O)cn2cc1NC(=O)c1cncc(C(F)(F)F)n1` [Compound 17, N-[2-(3-hydroxy-3-methyl-butyl)-7-methoxy-imidazo[1,2-a]pyridin-6-yl]-6-(trifluoromethyl)pyrazine-2-carboxamide], the IC50 on human IRAK-4 was in the range of 0.01 to 0.05 µM.
